Assays:
[1] = test system: AR and PSA expression; set-up: method as in Kharlyngdoh et al. (2015); conditions: at 1 μM; ref Kharlyngdoh et al. (2015); cited from earlier work
[2] = target: T1, human androgen receptor (hAR) (Homo sapiens, UniProt P10275); assay: Mechanism of AR inhibition: testosterone dose-response curves in presence of test chemical, luciferase reporter, MDA-kb2 cells; assay type: cell-based; conditions: highest noncytotoxic concentration: 15 μM NON, HEP, OCT, NNN; 1 μM FLO; 0.05 μM OHF
[3] = test system: MDA-kb2 cells; assay: Cell viability (colorimetric MTT) assay; assay type: cell-based, human
Protocol: The cytotoxic effect of PFASs was measured by a colorimetric MTT assay as described previously ([Tachachartvanich et al., 2020]). Briefly, MDA-kb2 cells were plated at a density of 3.0 × 10^4 cells/well in clear 96-well plates (Thermo Scientific, Waltham, MA). After 24 h incubation, cells were treated with PFASs at concentrations ranging from 0.1 to 100 μM in triplicate per treatment. The optical density was assessed at 570 nm with reference wavelength of 650 nm using microplate spectrophotometer (Tecan Infinite® 200PRO, Austria). All cytotoxicity experiments were performed side-by-side with the corresponding cell culture assays and repeated at least three times in a separate independent setup.

[4] = target: T1, human androgen receptor (hAR); assay: AR-mediated luciferase reporter gene assay, antiandrogenic effects (co-culture with […] testosterone), MDA-kb2 cells; assay type: cell-based; conditions: for IC20: MDA-kb2, 24 h, read-out: Inhibition REC20
[5] = test system: PSA, FKBP5 and AR mRNA in VCaP human prostate cancer cells; assay: Expression of androgen responsive genes (real-time PCR) in VCaP cells; assay type: cell-based; conditions: 24 h; for testosterone induced expression of FKBP5 / testosterone induced expression of PSA: 1 and 5 μM PFAS with […] testosterone; for testosterone induced expression of FKBP5 / testosterone induced expression of PSA / expression of AR: 10% CD FBS; for expression of AR: PFAS (1 and 5 μM) or 50 nM OHF with […] testosterone
Protocol: VCaP cells were cultured in phenol red-free DMEM supplemented with 10% charcoal-dextran stripped FBS (10% CD FBS, Hyclone, USA) and 1% L-glutamine (Gibco, Grand Island, NY) for 3 days prior to PFAS treatment. Cells were plated at a density of 2.0 × 10^6 cells/well in 6-well plates (CellStar, Monroe, NC) and incubated 24 h. […] After the incubation, total RNA was extracted using the RNeasy Mini Kit (Qiagen, Germantown, MD). Briefly, 2 μg of total RNA were reverse transcribed to cDNA using the SuperScript IV VILO (Thermo Scientific, Waltham, MA) and subjected to real-time PCR (Stratagene MxP3005, Agilent Technologies, Palo Alto, CA). The cDNA was amplified in 10 μL of SYBR Green real-time PCR Master Mixes (Thermofisher Scientific, Waltham, MA) according to the manufacturer’s protocol. […] The fold change of the target genes was compared to the vehicle control using the 2^−ΔΔCt method ([Livak and Schmittgen, 2001]).
Fig. 4. […] Values are expressed as the mean fold change ± S.E.M. from three independent experiments. […] Significance levels are represented with asterisk as following: *p < 0.05, **p < 0.01, ***p < 0.001, and ****p < 0.0001. The Ptrend is determined based on linear regression analysis.

[6] = test system: intracellular AR protein in VCaP cells; assay: Immunoblotting of intracellular AR protein in VCaP cells; assay type: cell-based, human; conditions: 10% FBS, 48 h exposure to PFAS
Protocol: Cells were plated at a density of 2.0 × 10^6 cells/well in 6-well plates (CellStar, Monroe, NC) and incubated 24 h.
Values are expressed as the mean fold change ± S.E.M. from three independent experiments.

[7] = test system: AR; set-up: method as in Kjeldsen and Bonefeld-Jørgensen, 2013; conditions: in vitro study; ref Kjeldsen and Bonefeld-Jørgensen, 2013; cited from earlier work

T1 sequence (P10275 whole entry): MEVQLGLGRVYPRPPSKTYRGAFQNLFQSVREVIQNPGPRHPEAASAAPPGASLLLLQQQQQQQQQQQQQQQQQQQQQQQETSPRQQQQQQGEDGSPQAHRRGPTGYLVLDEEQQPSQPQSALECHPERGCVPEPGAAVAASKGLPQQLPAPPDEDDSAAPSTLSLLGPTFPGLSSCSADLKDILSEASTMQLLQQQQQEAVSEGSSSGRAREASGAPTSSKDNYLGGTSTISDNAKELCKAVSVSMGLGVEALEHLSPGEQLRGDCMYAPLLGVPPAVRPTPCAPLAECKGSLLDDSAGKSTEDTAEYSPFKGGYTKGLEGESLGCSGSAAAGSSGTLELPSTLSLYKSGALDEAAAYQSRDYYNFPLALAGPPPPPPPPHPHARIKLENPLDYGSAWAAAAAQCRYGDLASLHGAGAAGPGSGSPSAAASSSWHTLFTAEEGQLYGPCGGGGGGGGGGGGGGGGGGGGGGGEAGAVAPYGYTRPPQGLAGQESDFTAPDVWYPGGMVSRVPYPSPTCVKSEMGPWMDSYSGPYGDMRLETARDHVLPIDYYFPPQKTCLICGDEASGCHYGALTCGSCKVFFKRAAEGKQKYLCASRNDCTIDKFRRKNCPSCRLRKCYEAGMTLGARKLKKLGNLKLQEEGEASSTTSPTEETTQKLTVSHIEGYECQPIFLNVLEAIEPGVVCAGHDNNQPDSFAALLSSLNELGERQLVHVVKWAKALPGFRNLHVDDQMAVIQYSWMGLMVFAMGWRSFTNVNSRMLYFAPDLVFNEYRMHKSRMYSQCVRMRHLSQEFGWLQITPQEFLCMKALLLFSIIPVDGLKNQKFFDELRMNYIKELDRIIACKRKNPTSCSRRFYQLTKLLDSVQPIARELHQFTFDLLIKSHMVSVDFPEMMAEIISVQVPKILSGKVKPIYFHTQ

Q: For C=CCOc1c(Br)cc(Br)cc1Br [ATE, allyl 2,4,6-tribromophenyl ether], which AR expression [1] is on record?
A: significantly increased AR expression

Q: With C=C(Br)COc1c(Br)cc(Br)cc1Br [BATE, 2-bromoallyl 2,4,6-tribromophenyl ether] as the compound, how does the AR expression [1] read?
A: significantly increased AR expression

Q: With Oc1ccc(/N=N/c2ccc(-c3ccc(C(F)(F)C(F)(F)C(F)(F)F)cc3)cc2)c(F)c1 [FLO, 3-Fluoro-4-{(E)-[4'-(heptafluoropropyl) [1,1'-biphenyl]-4-yl]diazenyl}phenol] as the compound, how does the “effect on dose response curve of testosterone” value (from here on “effect on dose response curve”) [2] read?
A: did not change the dose response curves

Q: And the cytotoxicity [3]?
A: relatively high cytotoxicity

Q: Which results are given for FC(F)(F)C(F)(F)C(F)(F)c1nc2ccccc2nc1-c1ccccc1 [HEP, 2-(Heptafluoropropyl)-3-phenylquinoxaline]?
A: IC20 [4]: 3.08 µM; effect on dose response curve of testosterone [2]: rightward parallel shift; testosterone induced expression of FKBP5 [5]: significantly and concentration dependently decreased; testosterone induced expression of PSA [5]: significantly and concentration dependently decreased; AR protein level, normal conditions [6]: significantly decreased the AR protein

Q: For O=C(Nc1ccc([N+](=O)[O-])cc1)C(F)(F)C(F)(F)C(F)(F)C(F)(F)F [NNN, 2,2,3,3,4,4,5,5,5-Nonafluoro-N-(4 nitrophenyl)pentanamide], which IC20 [4] is on record?
A: 2.78 µM

Q: And the inhibition at 10 µM ([4]; MDA-kb2, read-out: inhibition of AR transactivation)?
A: ~25%

Q: And the “effect on dose response curve” value [2]?
A: rightward parallel shift

Q: And the “AR expression at 1 μM” value ([5]; 1 μM with […] testosterone)?
A: did not significantly affect AR expression

Q: What about the “testosterone induced expression of FKBP5” value [5] of the same compound?
A: significantly and concentration dependently decreased

Q: And the “testosterone induced expression of PSA” value [5]?
A: significantly and concentration dependently decreased

Q: And the “expression of AR” value [5]?
A: upregulating the expression of AR

Q: What about the “AR protein level, normal conditions” value [6] of the same compound?
A: did not significantly affect cellular AR protein levels

Q: With O=c1cc(C(F)(F)C(F)(F)C(F)(F)C(F)(F)F)c2cc3c4c(c2o1)CCCN4CCC3 [NON, 9-(Nonafluorobutyl)-2,3,6,7-tetrahydro-1H,5H,11H-pyrano[2,3-f]pyrido[3,2,1-ij]quinolin-11-one] as the compound, how does the IC20 [4] read?
A: 10.5 µM

Q: What about the “effect on dose response curve” value [2] of the same compound?
A: rightward parallel shift

Q: And the “testosterone induced expression of FKBP5” value [5]?
A: significantly and concentration dependently decreased

Q: What about the “testosterone induced expression of PSA” value [5] of the same compound?
A: significantly and concentration dependently decreased

Q: And the “AR protein level, normal conditions” value [6]?
A: significantly decreased the AR protein

Q: With Fc1c(F)c(F)c2c(F)c(F)c(F)c(F)c2c1F [OCT, Octafluoronaphthalene] as the compound, how does the “effect on dose response curve” value [2] read?
A: did not change the dose response curves

Q: Which “effect on dose response curve” value [2] does the source give for CC(C)(O)C(=O)Nc1ccc([N+](=O)[O-])c(C(F)(F)F)c1 [OHF, hydroxyflutamide, reference compound] here?
A: the most parallel shift

Q: What about the “expression of AR” value [5] of the same compound?
A: upregulating the expression of AR

Q: For O=C(O)C(F)(F)C(F)(F)C(F)(F)C(F)(F)C(F)(F)C(F)(F)C(F)(F)C(F)(F)C(F)(F)F [PFDA, perfluorodecanoate], which “RIC20, antiandrogenic effect” value [7] is on record?
A: ~24 µM

Q: For O=S(=O)(O)C(F)(F)C(F)(F)C(F)(F)C(F)(F)C(F)(F)C(F)(F)F [PFHxS, perfluorohexane sulfonate], which “RIC20, antiandrogenic effect” value [7] is on record?
A: ~19 µM

Q: For O=C(O)C(F)(F)C(F)(F)C(F)(F)C(F)(F)C(F)(F)C(F)(F)C(F)(F)C(F)(F)F [PFNA, perfluorononanoate], which “RIC20, antiandrogenic effect” value [7] is on record?
A: ~44 µM

Q: With O=C(O)C(F)(F)C(F)(F)C(F)(F)C(F)(F)C(F)(F)C(F)(F)C(F)(F)F [PFOA, perfluorooctanoic acid] as the compound, how does the “RIC20, antiandrogenic effect” value [7] read?
A: around 10 μM
